This note sets out measurements from patent US11884675B2, “Heterocyclic compounds as triggering receptor expressed on myeloid cells 2 agonists and methods of use” (AMGEN INC., priority 2020, dated 2024).

The structures appear in SMILES notation.

hTREM2, sequence (Q9NZC2 19-230): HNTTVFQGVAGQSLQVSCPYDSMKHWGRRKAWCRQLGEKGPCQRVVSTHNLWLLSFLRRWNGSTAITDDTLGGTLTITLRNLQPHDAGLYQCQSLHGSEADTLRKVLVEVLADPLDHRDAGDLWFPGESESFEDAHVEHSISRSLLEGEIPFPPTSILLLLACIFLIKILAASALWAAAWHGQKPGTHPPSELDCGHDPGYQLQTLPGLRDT
hTREM2, sequence (O43914 22-113 partner): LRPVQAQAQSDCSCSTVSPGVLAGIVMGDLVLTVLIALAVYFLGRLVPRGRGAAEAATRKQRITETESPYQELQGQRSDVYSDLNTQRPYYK

This assay has as its target hTREM2 (Homo sapiens, UniProt Q9NZC2). In words: TREM2 activity by cellular Syk phosphorylation (AlphaScreen/AlphaLISA) in TREM2/DAP12-HEK cells, used for Examples 1-305. The class given is cell-based. Also noted: expressed in transfected cells. Conditions: HEK293 Cells. The procedure, abridged:
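Single-cell-cloned HEK293 cells overexpressing TREM2 and DAP12, seeded 20 h, exposed to test articles (1% final DMSO) for 45 min at room temperature. Lysates read for phospho-Syk (Tyr525/526) vs total Syk by AlphaScreen. Signal normalised as percent of control between isotype IgG and 100 nM anti-TREM2 antibody; 4-parameter logistic fit.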
As to `Cc1nc2nc(N3CCO[C@@H](c4cnn(C)c4)C3)nc(-c3cc(F)c(F)cc3F)c2nc1C` [Example 62, 6,7-dimethyl-2-((2S)-2-(1-methyl-1H-pyrazol-4-yl)-4-morpholinyl)-4-(2,4,5-trifluorophenyl)pteridine], the concentration giving a half-maximal response (EC50) (as a rule, the concentration at which the effect is half-maximal) was not above 50 nM and the “hTREM2 Emax” value is “++++ (Emax>250)”.
For `Cc1nc2nc(N3CCO[C@@H](c4cnn(C)c4)C3)nc(C34CC(C(F)(F)F)(C3)C4)c2nc1C` [Example 63, 6,7-dimethyl-2-((2S)-2-(1-methyl-1H-pyrazol-4-yl)-4-morpholinyl)-4-(3-(trifluoromethyl)bicyclo[1.1.1]pentan-1-yl)pteridine], the concentration for a half-maximal effect (EC50) is not above 50 nM; the “hTREM2 Emax” value was “+++ (Emax>150 and ≤250)”.
For `Cc1nc2nc(N3CCO[C@@H](c4cnn(C5CC5)c4)C3)nc(C34CC(C(F)(F)F)(C3)C4)c2nc1C` [Example 64, 2-((2S)-2-(1-cyclopropyl-1H-pyrazol-4-yl)-4-morpholinyl)-6,7-dimethyl-4-(3-(trifluoromethyl)bicyclo[1.1.1]pentan-1-yl)pteridine], the half-maximal effective concentration (EC50) was not above 50 nM; the “hTREM2 Emax” value is “+++ (Emax>150 and ≤250)”.
With `Cc1cc([C@H]2CN(c3nc(C45CC(C(F)(F)F)(C4)C5)c4nc(C)c(C)nc4n3)CCO2)ccn1` [Example 65], the EC50 was not above 50 nM; the “hTREM2 Emax” value is “+++ (Emax>150 and ≤250)”.
Take `Cc1nc2nc(N3CCO[C@@H](c4cnn(C)c4)C3)nc(N3CCC(F)(F)CC3)c2nc1C` [Example 66, 4-(4,4-difluoro-1-piperidinyl)-6,7-dimethyl-2-((2S)-2-(1-methyl-1H-pyrazol-4-yl)-4-morpholinyl)pteridine]: the 50% effective concentration (EC50) was in the range of 500 to 3000 nM.
In the case of `Cc1nc2nc(N3CCO[C@@H](c4cnn(C)c4)C3)nc(N3CCC(C)(C)CC3)c2nc1C` [Example 67, 4-(4,4-dimethyl-1-piperidinyl)-6,7-dimethyl-2-((2S)-2-(1-methyl-1H-pyrazol-4-yl)-4-morpholinyl)pteridine], the EC50 was 50 to 500 nM; the “hTREM2 Emax” value is “+ (Emax>45 and ≤100)”.
`Cc1nc2nc(N3CCO[C@@H](c4cnn(C)c4)C3)nc(N3CCCC(F)(F)C3)c2nc1C` [Example 68, 4-(3,3-difluoro-1-piperidinyl)-6,7-dimethyl-2-((2S)-2-(1-methyl-1H-pyrazol-4-yl)-4-morpholinyl)pteridine]: the EC50 lay in the range of 3000 to 100000 nM.
Take `Cc1nc2nc(N3CCO[C@@H](c4cnn(C)c4)C3)nc(N3CCC(F)(F)C3)c2nc1C` [Example 71, 4-(3,3-difluoro-1-pyrrolidinyl)-6,7-dimethyl-2-((2S)-2-(1-methyl-1H-pyrazol-4-yl)-4-morpholinyl)pteridine]: the concentration giving a half-maximal response (EC50) is 3000 to 100000 nM; the “hTREM2 Emax” value was “++ (Emax>100 and ≤150)”.
Turning to `Cc1nc2nc(N3CCO[C@@H](c4cnn(C)c4)C3)nc(N3CCC(C)(C)C3)c2nc1C` [Example 72, 4-(3,3-dimethyl-1-pyrrolidinyl)-6,7-dimethyl-2-((2S)-2-(1-methyl-1H-pyrazol-4-yl)-4-morpholinyl)pteridine], the EC50 is 500 to 3000 nM; the “hTREM2 Emax” value was “+ (Emax>45 and ≤100)”.
As for `Cc1cnc2c(-c3ccc(Cl)cc3F)nc(N3CCO[C@@H](c4cnn(C)c4)C3)cc2n1` [Example 73, 5-(4-chloro-2-fluorophenyl)-2-methyl-7-((2S)-2-(1-methyl-1H-pyrazol-4-yl)-4-morpholinyl)pyrido[3,4-b]pyrazine], the half-maximal effective concentration (EC50) was 50 to 500 nM and the “hTREM2 Emax” value is “++++ (Emax>250)”.
Turning to `Cc1cnc2cc(N3CCO[C@@H](c4cnn(C)c4)C3)nc(-c3ccc(Cl)cc3F)c2n1` [Example 74, 5-(4-chloro-2-fluorophenyl)-3-methyl-7-((2S)-2-(1-methyl-1H-pyrazol-4-yl)-4-morpholinyl)pyrido[3,4-b]pyrazine], the EC50 was 50 to 500 nM and the “hTREM2 Emax” value is on record as “++++ (Emax>250)”.
Regarding `CCn1cc([C@H]2CN(c3cc4nc(C)cnc4c(-c4ccc(Cl)cc4F)n3)CCO2)cn1` [Example 75, 5-(4-chloro-2-fluorophenyl)-7-((2S)-2-(1-ethyl-1H-pyrazol-4-yl)-4-morpholinyl)-2-methylpyrido[3,4-b]pyrazine], the EC50 lay within 50 to 500 nM and the “hTREM2 Emax” value is recorded as “++++ (Emax>250)”.
For the molecule `Cc1cnc2c(-c3ccc(Cl)cc3F)nc(N3CCO[C@@H](c4cnn(C5CC5)c4)C3)cc2n1` [Example 76, 5-(4-chloro-2-fluorophenyl)-7-((2S)-2-(1-cyclopropyl-1H-pyrazol-4-yl)-4-morpholinyl)-2-methylpyrido[3,4-b]pyrazine], the EC50 lay within 50 to 500 nM and the “hTREM2 Emax” value is on record as “++++ (Emax>250)”.
Regarding `Cc1cc([C@H]2CN(c3cc4nc(C)cnc4c(-c4ccc(Cl)cc4F)n3)CCO2)ccn1` [Example 77, 5-(4-chloro-2-fluorophenyl)-2-methyl-7-((2S)-2-(2-methyl-4-pyridinyl)-4-morpholinyl)pyrido[3,4-b]pyrazine], the EC50 is not above 50 nM; the “hTREM2 Emax” value was “+++ (Emax>150 and ≤250)”.
As for `COc1cc([C@H]2CN(c3cc4nc(C)cnc4c(-c4ccc(Cl)cc4F)n3)CCO2)ccn1` [Example 78, 5-(4-chloro-2-fluorophenyl)-7-((2S)-2-(2-methoxy-4-pyridinyl)-4-morpholinyl)-2-methylpyrido[3,4-b]pyrazine], the EC50 is 50 to 500 nM; the “hTREM2 Emax” value was “+++ (Emax>150 and ≤250)”.
Consider `Cc1nc2cc(N3CCO[C@@H](c4cnn(C)c4)C3)nc(-c3ccc(Cl)cc3F)c2nc1C` [Example 79, 5-(4-chloro-2-fluorophenyl)-2,3-dimethyl-7-((2S)-2-(1-methyl-1H-pyrazol-4-yl)-4-morpholinyl)pyrido[3,4-b]pyrazine], for which the 50% effective concentration (EC50) was not above 50 nM and the “hTREM2 Emax” value was “++++ (Emax>250)”.
In the case of `Cc1nc2cc(N3CCO[C@@H](c4cnn(C)c4)C3)nc([C@H]3C[C@H](C(F)(F)F)C3)c2nc1C` [Example 80, 2,3-dimethyl-7-((2S)-2-(1-methyl-1H-pyrazol-4-yl)-4-morpholinyl)-5-(trans-3-(trifluoromethyl)cyclobutyl)pyrido[3,4-b]pyrazine], the EC50 is 50 to 500 nM; the “hTREM2 Emax” value was “++ (Emax>100 and ≤150)”.
As for `Cc1nc2cc(N3CCO[C@@H](c4cnn(C5CC5)c4)C3)nc([C@H]3C[C@H](C(F)(F)F)C3)c2nc1C` [Example 81, 7-((2S)-2-(1-cyclopropyl-1H-pyrazol-4-yl)-4-morpholinyl)-2,3-dimethyl-5-(trans-3-(trifluoromethyl)cyclobutyl)pyrido[3,4-b]pyrazine], the EC50 was in the range of 50 to 500 nM; the “hTREM2 Emax” value is “++ (Emax>100 and ≤150)”.
Regarding `Cc1cc([C@H]2CN(c3cc4nc(C)c(C)nc4c([C@H]4C[C@H](C(F)(F)F)C4)n3)CCO2)ccn1` [Example 82], the EC50 fell in the range of 50 to 500 nM; the “hTREM2 Emax” value is “+++ (Emax>150 and ≤250)”.
For the molecule `Cn1cc([C@H]2CN(c3nc(-c4ccc(Cl)cc4F)c4cccnc4n3)CCO2)cn1` [Example 83, 4-(4-chloro-2-fluorophenyl)-2-((2S)-2-(1-methyl-1H-pyrazol-4-yl)-4-morpholinyl)pyrido[2,3-d]pyrimidine], the EC50 lay in the range of 500 to 3000 nM and the “hTREM2 Emax” value is recorded as “++++ (Emax>250)”.
Consider `Cc1ccc2c(-c3ccc(Cl)cc3F)nc(N3CCO[C@@H](c4cnn(C)c4)C3)nc2n1` [Example 84, 4-(4-chloro-2-fluorophenyl)-7-methyl-2-((2S)-2-(1-methyl-1H-pyrazol-4-yl)-4-morpholinyl)pyrido[2,3-d]pyrimidine], for which the EC50 is not above 50 nM; the “hTREM2 Emax” value is “+++ (Emax>150 and ≤250)”.
Take `Cc1ccc2c(-c3ccc(Cl)cc3F)nc(N3CCO[C@@H](c4cnn(C5CC5)c4)C3)nc2n1` [Example 85, 4-(4-chloro-2-fluorophenyl)-2-((2S)-2-(1-cyclopropyl-1H-pyrazol-4-yl)-4-morpholinyl)-7-methylpyrido[2,3-d]pyrimidine]: the EC50 is not above 50 nM; the “hTREM2 Emax” value was “+++ (Emax>150 and ≤250)”.
Take `Cc1cc([C@H]2CN(c3nc(-c4ccc(Cl)cc4F)c4ccc(C)nc4n3)CCO2)ccn1` [Example 88, 4-(4-chloro-2-fluorophenyl)-7-methyl-2-((2S)-2-(2-methyl-4-pyridinyl)-4-morpholinyl)pyrido[2,3-d]pyrimidine]: the half-maximal effective concentration (EC50) is not above 50 nM and the “hTREM2 Emax” value was “++++ (Emax>250)”.
As to `Cc1ccc2c(-c3ccc(F)cc3F)nc(N3CCO[C@@H](c4cnn(C)c4)C3)nc2n1` [Example 91, 4-(2,4-difluorophenyl)-7-methyl-2-((2S)-2-(1-methyl-1H-pyrazol-4-yl)-4-morpholinyl)pyrido[2,3-d]pyrimidine], the EC50 lay in the range of 50 to 500 nM; the “hTREM2 Emax” value was “+++ (Emax>150 and ≤250)”.
For `Cc1ccc2c(-c3ccc(F)cc3F)nc(N3CCO[C@@H](c4cnn(C5CC5)c4)C3)nc2n1` [Example 92, 2-((2S)-2-(1-cyclopropyl-1H-pyrazol-4-yl)-4-morpholinyl)-4-(2,4-difluorophenyl)-7-methylpyrido[2,3-d]pyrimidine], the EC50 was not above 50 nM; the “hTREM2 Emax” value was “+++ (Emax>150 and ≤250)”.
With `Cc1cc([C@H]2CN(c3nc(-c4ccc(F)cc4F)c4ccc(C)nc4n3)CCO2)ccn1` [Example 93, 4-(2,4-difluorophenyl)-7-methyl-2-((2S)-2-(2-methyl-4-pyridinyl)-4-morpholinyl)pyrido[2,3-d]pyrimidine], the half-maximal effective concentration (EC50) was not above 50 nM; the “hTREM2 Emax” value is “+++ (Emax>150 and ≤250)”.
Consider `Cc1ccc(-c2nc(N3CCO[C@@H](c4cnn(C)c4)C3)nc3nc(C)ccc23)c(F)c1` [Example 94, 4-(2-fluoro-4-methylphenyl)-7-methyl-2-((2S)-2-(1-methyl-1H-pyrazol-4-yl)-4-morpholinyl)pyrido[2,3-d]pyrimidine], for which the concentration giving a half-maximal response (EC50) fell in the range of 50 to 500 nM; the “hTREM2 Emax” value is “+++ (Emax>150 and ≤250)”.
